Test results taken from article PMC12207360, “Hyperpolarization Modulation of the T‐Type hCav3.2 Channel by Human Synenkephalin [1–53], a Shrew Neurotoxin Analogue without Paralytic Effects” (Angewandte Chemie (International Ed. in English), 2025).
Marks after values point to notes of the source that are not given here.

How the values were obtained:
[1] = biological target: human T-type voltage-gated calcium channel hCav3.2 (human) (UniProt O95180)
[2] = test system: mealworms (larva of Zophobas atratus); details: cited from earlier work
[3] = test system: trypsin; details: core N-terminal 1–41 part of BPP2; cited from earlier work
Experimental: (§1) To determine the connectivity of disulfide bonds in synthetic 2, enzymatic digestion and subsequent fragment peptide analysis were performed. […] However, due to high proteolytic stability, analysis of these degraded products provid ...

[4] = test system: glutamyl endopeptidase (Glu-C); details: core N-terminal 1–41 part of BPP2; cited from earlier work
Experimental: as §1

[5] = ColabFold-predicted structure, cited from earlier work
Excerpt: To compare the structural properties of hSYN and BPP2, we next examined their three‐dimensional structures using ColabFold^[ [64] ^] (a Google Colab version of AlphaFold2^[ [65] ^] using MMSeq2^[ [66] ^]). […] The four helical structures of hSYN were hi ... || Figure 3 Proposed three‐dimensional structures of hSYN and BPP2. a) ColabFold‐predicted structure of hSYN. Disulfide bonds are highlighted in orange sticks. b) Proposed helices in the calculated structures. c) CD spectra of hSYN. Obs: Synthetic 2 (20 µM) was measured in 50 mM potassium phosphate (pH 7.0) at 25 °C. Calc: The ColabFold‐predicted structure was analyzed using the PDBMD2CD server. d) Calculated helicities (%) of each model by three methods based on the CD spectra. e) Superimposed structures of hSYN (blue white) and BPP2 (pale green). Key residues that interact between the helixes a ...

[6] = test system: hCav2.2; details: synthetic BPP2; cited from earlier work
Excerpt: (§2) The short‐tailed shrew Blarina brevicauda is one of the rare venomous mammals that has potent neurotoxins in its saliva and effectively captures prey such as earthworms and small insects.^[ [25] ^] Since Blarina shrew venom causes severe pain in those bitten,^[ [26] ^] it was predicted that the venom targets specific ion channels related to pain and neurotransmission.^[ [27] ^] Recently, we isolated and characterized Blarina paralytic peptides (BPPs) 1 and 2 as major active substances against mealworms (Figure 1a).^[ [28] ^] BPP2 was chemically synthesized based on the gene sequence of the pre ...

[7] = test system: human T-type voltage-gated calcium channel (hCav3.2); details: 0.84 µM; synthetic BPP2; cited from earlier work
Excerpt: as §2

UniProt O95180, sequence (O95180 whole entry): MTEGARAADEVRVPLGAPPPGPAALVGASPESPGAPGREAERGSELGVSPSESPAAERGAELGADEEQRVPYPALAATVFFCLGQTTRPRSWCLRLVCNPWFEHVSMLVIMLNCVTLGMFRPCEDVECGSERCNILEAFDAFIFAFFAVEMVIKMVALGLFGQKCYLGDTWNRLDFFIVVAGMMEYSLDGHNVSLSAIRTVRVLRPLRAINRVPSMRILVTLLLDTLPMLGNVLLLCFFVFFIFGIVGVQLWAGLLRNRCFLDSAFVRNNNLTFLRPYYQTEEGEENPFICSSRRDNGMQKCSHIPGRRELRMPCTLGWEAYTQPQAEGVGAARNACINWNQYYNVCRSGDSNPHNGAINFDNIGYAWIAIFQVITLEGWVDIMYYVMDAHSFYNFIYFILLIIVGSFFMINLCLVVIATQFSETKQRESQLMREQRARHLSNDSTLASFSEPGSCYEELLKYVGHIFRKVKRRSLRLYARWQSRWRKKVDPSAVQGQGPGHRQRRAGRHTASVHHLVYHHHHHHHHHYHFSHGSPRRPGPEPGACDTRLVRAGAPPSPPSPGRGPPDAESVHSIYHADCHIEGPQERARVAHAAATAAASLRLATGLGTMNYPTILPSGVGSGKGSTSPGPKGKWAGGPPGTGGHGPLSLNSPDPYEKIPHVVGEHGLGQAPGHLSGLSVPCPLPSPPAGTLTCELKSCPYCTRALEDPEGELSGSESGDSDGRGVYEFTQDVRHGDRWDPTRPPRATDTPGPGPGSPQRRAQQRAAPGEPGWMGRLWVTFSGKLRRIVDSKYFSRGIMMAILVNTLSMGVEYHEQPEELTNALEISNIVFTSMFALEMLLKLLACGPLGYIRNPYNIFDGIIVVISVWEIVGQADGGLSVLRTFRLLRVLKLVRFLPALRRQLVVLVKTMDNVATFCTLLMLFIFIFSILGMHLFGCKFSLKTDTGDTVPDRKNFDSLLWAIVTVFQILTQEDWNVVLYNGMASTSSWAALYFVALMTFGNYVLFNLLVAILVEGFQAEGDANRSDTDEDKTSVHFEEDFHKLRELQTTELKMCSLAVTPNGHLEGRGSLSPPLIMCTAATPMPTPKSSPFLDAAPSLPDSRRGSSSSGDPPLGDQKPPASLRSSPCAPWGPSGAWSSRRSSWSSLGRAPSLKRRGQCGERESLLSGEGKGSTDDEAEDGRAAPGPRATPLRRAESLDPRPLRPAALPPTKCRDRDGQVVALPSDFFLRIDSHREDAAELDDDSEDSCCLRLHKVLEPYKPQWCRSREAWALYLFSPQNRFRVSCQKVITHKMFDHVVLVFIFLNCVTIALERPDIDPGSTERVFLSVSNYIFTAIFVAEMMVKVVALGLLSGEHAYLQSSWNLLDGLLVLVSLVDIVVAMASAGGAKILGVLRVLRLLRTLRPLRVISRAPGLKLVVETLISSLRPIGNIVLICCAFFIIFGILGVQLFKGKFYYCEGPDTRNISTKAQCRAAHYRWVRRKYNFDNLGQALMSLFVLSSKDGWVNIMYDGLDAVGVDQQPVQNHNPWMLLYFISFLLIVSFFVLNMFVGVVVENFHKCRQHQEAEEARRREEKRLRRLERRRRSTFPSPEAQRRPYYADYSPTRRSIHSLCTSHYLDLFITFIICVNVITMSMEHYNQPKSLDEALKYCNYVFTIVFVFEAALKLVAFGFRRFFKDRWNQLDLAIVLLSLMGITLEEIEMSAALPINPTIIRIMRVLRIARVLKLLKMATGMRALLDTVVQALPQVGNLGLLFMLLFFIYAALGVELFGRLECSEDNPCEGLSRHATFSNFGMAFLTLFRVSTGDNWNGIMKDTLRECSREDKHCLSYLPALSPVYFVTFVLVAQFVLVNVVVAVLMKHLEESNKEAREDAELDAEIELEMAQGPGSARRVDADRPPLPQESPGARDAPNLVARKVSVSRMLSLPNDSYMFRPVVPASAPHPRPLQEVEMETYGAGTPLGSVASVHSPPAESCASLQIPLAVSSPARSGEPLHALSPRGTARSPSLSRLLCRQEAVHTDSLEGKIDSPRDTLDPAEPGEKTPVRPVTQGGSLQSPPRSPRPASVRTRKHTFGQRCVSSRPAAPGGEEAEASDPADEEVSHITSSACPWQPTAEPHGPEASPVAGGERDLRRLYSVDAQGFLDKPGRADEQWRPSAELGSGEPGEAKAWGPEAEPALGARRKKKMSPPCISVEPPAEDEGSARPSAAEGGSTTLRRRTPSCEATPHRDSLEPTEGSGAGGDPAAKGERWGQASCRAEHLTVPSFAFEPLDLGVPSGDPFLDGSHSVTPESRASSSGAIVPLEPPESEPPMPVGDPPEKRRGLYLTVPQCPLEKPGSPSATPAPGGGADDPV

Substance	hyperpolarization shift of hCav3.2 activation at 0.74 µM hSYN (2); whole-cell patch clamp on HEK293T cells expressing hCav3.2, n = 5 [1] [mV]	Paralyzed/total numbers ([2]; i.p., 5.6 µg/g bodyweight)	paralytic effect on mealworms ([2]; synthetic BPP2, intraperitoneal, 5.6 µg g−1 body weight, immediately after administration)	proteolytic stability toward trypsin [3]	proteolytic stability toward Glu-C [4]	Helicity, calculated, BestSel ([5]; BestSel server) [%]	Helicity, calculated, K2D3 ([5]; K2D3 server) [%]	Helicity, calculated, PDBMD2CD ([5]; PDBMD2CD server) [%]	effect on hCav2.2 [6]	hyperpolarization shift in the activation of hCav3.2 [7]
human synenkephalin N-terminal part [1–53] (hSYN), Type II disulfide bond connectivity, synthetic compound 2 (peptide)	-15									
Blarina paralytic peptide 2 [BPP2]		3/3 ^b)	reliably induces paralysis and convulsions in mealworms	highly stable	highly stable	48.9	54.9	55.7	no significant effect on hCav2.2	–11 mV
